Measured values: ChEMBL document CHEMBL4007472, “Identification of novel TACE inhibitors compatible with topical application” (Bioorg Med Chem Lett, 2017)
≈ marks a conversion by molar mass, not a printed value.

Columns and labels:
[1] = target: T1, Disintegrin and metalloproteinase domain-containing protein 17 (Homo sapiens, UniProt P78536); experiment: Inhibition of TACE (unknown origin) by cell based assay
[2] = target: T1, Disintegrin and metalloproteinase domain-containing protein 17; experiment: Inhibition of TACE (unknown origin)
[3] = target: T1, Disintegrin and metalloproteinase domain-containing protein 17; experiment: Inhibition of TACE in human PBMC assessed as inhibition of LPS-stimulated TNFalpha production
[4] = target: Disintegrin and metalloproteinase domain-containing protein 17 (Sus scrofa, UniProt O77636); experiment: Inhibition of porcine spleen TACE using Mca-Pro-LeuAla-Gln-Ala-Val-Dpa-Arg-Ser-Ser-Ser-[…]-NH2 as substrate by fluorescence assay
[5] = Stability in human liver microsomes assessed as parent compound remaining at 1 uM after 15 mins by LC-MS/MS analysis; type: ADME, microsome; conditions: read-out: Stability
[6] = target: T1, Disintegrin and metalloproteinase domain-containing protein 17; experiment: Inhibition of recombinant human TACE catalytic domain using Mca-Pro-Leu-Ala-Gln-Ala-Val-Dpa-Arg-Ser-Ser-Ser-Arg-NH2 as substrate after 2 hrs by fluorescence assay
[7] = target: T1, Disintegrin and metalloproteinase domain-containing protein 17; experiment: Inhibition of TACE in NHEK assessed as reduction in LPS/TPA-stimulated TNFalpha production preincubated for 1 hr followed by LPS/TPA stimulation for 24 hrs by HTRF assay
[8] = Aqueous solubility of the compound; type: physicochemical
[9] = target: T1, Disintegrin and metalloproteinase domain-containing protein 17; experiment: Inhibition of recombinant TACE catalytic domain (unknown origin) using Abz-LAQAVRSSSR-Dpa as substrate preincubated for 10 mins followed by substrate addition measured after 10 mins by FRET assay
[10] = target: Disintegrin and metalloproteinase domain-containing protein 17 (Mus musculus, UniProt Q9Z0F8); experiment: Inhibition of TACE in mouse RAW264.7 cells assessed as inhibition of LPS-stimulated TNFalpha production pretreated for 1 hr followed by LPS stimulation for 4 hrs by ELISA; type: cell-based
Chain of Disintegrin and metalloproteinase domain-containing protein 17 (Mus musculus, UniProt Q9Z0F8) (Q9Z0F8 whole entry, the tested form may be a part): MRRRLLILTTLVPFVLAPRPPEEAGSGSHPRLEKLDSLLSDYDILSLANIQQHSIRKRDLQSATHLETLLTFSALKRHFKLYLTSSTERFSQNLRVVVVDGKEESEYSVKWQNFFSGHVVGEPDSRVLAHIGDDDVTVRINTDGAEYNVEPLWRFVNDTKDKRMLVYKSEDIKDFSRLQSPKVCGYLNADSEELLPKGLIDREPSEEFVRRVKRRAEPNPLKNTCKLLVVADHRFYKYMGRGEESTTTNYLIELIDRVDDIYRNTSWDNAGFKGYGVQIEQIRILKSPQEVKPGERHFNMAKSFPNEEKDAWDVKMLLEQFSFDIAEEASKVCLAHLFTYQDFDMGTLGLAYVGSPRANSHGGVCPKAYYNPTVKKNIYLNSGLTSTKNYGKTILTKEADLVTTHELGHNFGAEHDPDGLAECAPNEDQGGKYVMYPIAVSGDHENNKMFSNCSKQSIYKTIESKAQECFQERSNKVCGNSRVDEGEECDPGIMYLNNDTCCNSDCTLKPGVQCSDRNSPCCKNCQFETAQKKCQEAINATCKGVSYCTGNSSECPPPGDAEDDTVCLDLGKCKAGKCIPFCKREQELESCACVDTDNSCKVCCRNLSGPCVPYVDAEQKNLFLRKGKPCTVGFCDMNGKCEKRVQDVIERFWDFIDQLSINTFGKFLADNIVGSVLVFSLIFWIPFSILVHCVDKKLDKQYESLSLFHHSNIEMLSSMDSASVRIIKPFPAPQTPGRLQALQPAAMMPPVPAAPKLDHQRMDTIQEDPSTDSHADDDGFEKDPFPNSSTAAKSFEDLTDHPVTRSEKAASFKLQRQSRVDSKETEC

T1 sequence (P78536 whole entry, the tested form may be a part): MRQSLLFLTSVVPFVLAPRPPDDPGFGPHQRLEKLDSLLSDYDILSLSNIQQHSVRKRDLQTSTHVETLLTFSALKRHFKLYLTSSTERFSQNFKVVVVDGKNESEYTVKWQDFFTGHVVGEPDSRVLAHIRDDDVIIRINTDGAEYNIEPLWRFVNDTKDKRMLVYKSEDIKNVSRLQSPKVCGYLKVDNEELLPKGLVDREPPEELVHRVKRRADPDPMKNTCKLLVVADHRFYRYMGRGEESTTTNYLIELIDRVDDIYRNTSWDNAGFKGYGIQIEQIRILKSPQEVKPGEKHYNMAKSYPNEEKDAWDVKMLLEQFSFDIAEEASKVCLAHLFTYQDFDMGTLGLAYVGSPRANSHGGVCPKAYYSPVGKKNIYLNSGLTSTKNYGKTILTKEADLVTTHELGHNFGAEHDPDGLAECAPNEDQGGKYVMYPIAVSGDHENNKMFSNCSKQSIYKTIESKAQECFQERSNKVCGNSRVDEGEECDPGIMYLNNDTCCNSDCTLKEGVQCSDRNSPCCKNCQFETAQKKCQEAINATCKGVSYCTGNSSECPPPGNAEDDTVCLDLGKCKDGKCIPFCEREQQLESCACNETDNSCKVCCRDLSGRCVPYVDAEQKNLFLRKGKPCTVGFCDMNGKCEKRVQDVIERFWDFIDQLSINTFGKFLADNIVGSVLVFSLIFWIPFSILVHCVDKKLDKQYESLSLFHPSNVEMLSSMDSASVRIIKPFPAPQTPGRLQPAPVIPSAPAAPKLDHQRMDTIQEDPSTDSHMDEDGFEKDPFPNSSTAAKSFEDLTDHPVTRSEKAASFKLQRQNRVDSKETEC
Chain of Disintegrin and metalloproteinase domain-containing protein 17 (Sus scrofa, UniProt O77636) (O77636 whole entry, the tested form may be a part): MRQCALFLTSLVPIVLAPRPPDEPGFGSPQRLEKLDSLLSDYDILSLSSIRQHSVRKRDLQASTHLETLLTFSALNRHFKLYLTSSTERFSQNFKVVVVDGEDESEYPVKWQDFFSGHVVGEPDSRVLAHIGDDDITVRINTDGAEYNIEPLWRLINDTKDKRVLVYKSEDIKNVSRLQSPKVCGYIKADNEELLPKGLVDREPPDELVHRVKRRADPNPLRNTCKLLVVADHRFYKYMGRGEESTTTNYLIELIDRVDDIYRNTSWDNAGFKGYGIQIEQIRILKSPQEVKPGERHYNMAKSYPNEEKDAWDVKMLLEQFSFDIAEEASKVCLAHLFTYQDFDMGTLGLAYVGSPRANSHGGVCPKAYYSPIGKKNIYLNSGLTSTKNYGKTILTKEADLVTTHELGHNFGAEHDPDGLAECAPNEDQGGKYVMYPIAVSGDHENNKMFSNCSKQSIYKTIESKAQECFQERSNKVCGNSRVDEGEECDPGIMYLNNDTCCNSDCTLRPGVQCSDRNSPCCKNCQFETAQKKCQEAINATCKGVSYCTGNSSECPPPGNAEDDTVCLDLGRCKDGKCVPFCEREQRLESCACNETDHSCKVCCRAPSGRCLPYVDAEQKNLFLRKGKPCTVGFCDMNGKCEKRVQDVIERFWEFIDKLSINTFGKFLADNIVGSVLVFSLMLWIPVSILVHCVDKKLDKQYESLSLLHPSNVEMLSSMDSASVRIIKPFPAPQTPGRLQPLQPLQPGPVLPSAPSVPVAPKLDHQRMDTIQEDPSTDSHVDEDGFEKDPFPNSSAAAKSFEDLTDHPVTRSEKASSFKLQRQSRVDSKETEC

SMILES | IC50 [3] [µM] | IC50 [4] [µM] | IC50 [6] [µM] | also measured
CNC(=O)[C@@H]1Cc2ccc(cc2)OCCCC[C@H](C(=O)NO)[C@@H](CCCc2cc(OC)ccc2OC)C(=O)N1 | – | – | – | IC50 ([1]; read-out: pIC50 (converted)): 3.98 µM; IC50 [2]: 0.00631 µM
COC(=O)CCC[C@H](C(=O)NO)N1CCNc2cc(OCc3cc(OC)cc(OC)c3)ccc2S1 | 0.9 | 0.01 | – | –
Cc1cc(COc2ccc3c(c2)NCCN([C@H](C)C(=O)NO)S3)cc(C)n1 | 2.9 | 0.544 | – | –
CC(C)C[C@H](C(=O)NO)N1CCNc2cc(OCc3ccccc3)ccc2S1 | 0.35 | 0.177 | – | –
COC(=O)CC[C@H](C(=O)NO)N1CCNc2cc(OCc3cc(OC)cc(OC)c3)ccc2S1 | 7.2 | 0.177 | – | –
COc1cc(COc2ccc3c(c2)NCCN([C@@H](C(=O)NO)C(C)C)S3)cc(OC)c1 | 4 | 0.01 | – | –
C[C@H](C(=O)NO)N1CCNc2cc(Oc3ccc([N+](=O)[O-])cc3)ccc2S1 | 1.2 | 0.011 | – | –
C[C@H](C(=O)NO)N1CCNc2cc(OCc3cc(Cl)cc(Cl)c3)ccc2S1 | 0.94 | 0.153 | – | –
O=C(c1ccccc1)[C@@H]1Cc2ccc(cc2)OCCCC[C@H](C(=O)NO)[C@@H](CCCc2cc(Br)cc(Br)c2)C(=O)N1 | – | – | – | IC50 ([1]; read-out: IC50): 5 µM; IC50 [2]: 0.0794 µM
COc1cc(COc2ccc3c(c2)NCCN([C@H](CC(C)C)C(=O)NO)S3)cc(OC)c1 | 5.4 | 0.017 | – | –
C[C@H](C(=O)NO)N1CCNc2cc(Oc3cccc([N+](=O)[O-])c3)ccc2S1 | 0.47 | 0.129 | – | –
Cc1cc(COc2ccc(S(=O)(=O)N3CCN(C(=O)C(C)C)C(C(=O)NO)C3)cc2)c2c(n1)CCCC2 (centres undefined) | – | – | 0.026 | remaining at […], 1 µM [5]: 91%
Cc1cc(COc2ccc(S(=O)(=O)N3CCN(C)C(C(=O)NO)C3)cc2)c2c(n1)CCCC2 (centres undefined) | – | – | 0.16 | remaining at […], 1 µM [5]: 80%
CNC(=O)[C@@H]1Cc2ccc(cc2)OCCCC[C@H](C(=O)NO)[C@@H](CCCc2cc(C(F)(F)F)cc(C(F)(F)F)c2)C(=O)N1 | – | – | – | IC50 ([1]; read-out: pIC50 (converted)): 0.316 µM; IC50 [2]: 0.0316 µM
CCC(=O)N1CCN(S(=O)(=O)c2ccc(OCc3cc(C)nc4c3CCCC4)cc2)CC1C(=O)NO (centres undefined) | – | – | 0.023 | remaining at […], 1 µM [5]: 100%
Cc1cc(COc2ccc(S(=O)(=O)N3CCC(C(=O)NO)C3)cc2)c2c(n1)CCCC2 (centres undefined) | – | – | 0.21 | IC50 [7]: > 10 µM
COCCOc1cc(CCC[C@H]2C(=O)N[C@H](C(=O)c3ccccc3)Cc3ccc(cc3)OCCCC[C@@H]2C(=O)NO)cc(OC)c1 | – | – | – | IC50 ([1]; read-out: pIC50 (converted)): 15.8 µM; IC50 [2]: 0.0794 µM
CCOc1cc(COc2ccc3c(c2)NCCN([C@H](C)C(=O)NO)S3)cc(OCC)c1 | 4.5 | 0.081 | – | –
CC(=O)N1C[C@@H](S(=O)(=O)c2ccc(OCc3cc(C)nc4c3CCCC4)cc2)C[C@H]1C(=O)NO | – | – | 0.35 | IC50 [7]: > 10 µM
Cc1cc(COc2ccc(S(=O)(=O)N3CCN(C(=O)CC(C)C)C(C(=O)NO)C3)cc2)c2c(n1)CCCC2 (centres undefined) | – | – | 0.023 | remaining at […], 1 µM [5]: 64%
Cc1cc(COc2ccc(S(=O)(=O)N3CCN(C(=O)C4CC4)C(C(=O)NO)C3)cc2)c2c(n1)CCCC2 (centres undefined) | – | – | 0.013 | remaining at […], 1 µM [5]: 88%; solubility [8]: 58 µM (≈ 30.7 µg/mL); IC50 [7]: 3.1 µM
Cc1nc(COc2ccc3c(c2)NCCN([C@@H](C(=O)NO)C(C)C)S3)sc1C | 24.5 | 0.29 | – | –
Cc1cc(COc2ccc(S(=O)(=O)N3CCN(C(=O)c4ccccc4)C(C(=O)NO)C3)cc2)c2c(n1)CCCC2 (centres undefined) | – | – | 0.016 | remaining at […], 1 µM [5]: 85%
Cc1cc(COc2ccc(S(=O)(=O)N3Cc4ccccc4C(C(=O)NO)C3)cc2)c2ccccc2n1 (centres undefined) | – | – | 0.084 | IC50 [7]: > 10 µM

SMILES | IC50 [3] [µM] | IC50 [4] [µM] | IC50 [6] [µM] | also measured
CCOc1cc(COc2ccc3c(c2)NCCN([C@@H](C(=O)NO)C(C)C)S3)cc(OCC)c1 | 8.2 | 0.051 | – | –
COc1cc(COc2ccc3c(c2)NCCN([C@H](CCCCNS(C)(=O)=O)C(=O)NO)S3)cc(OC)c1 | 1.9 | 0.005 | – | –
CCOc1cc(COc2ccc3c(c2)NCCN([C@H](CCC(=O)OC)C(=O)NO)S3)cc(OCC)c1 | 6.2 | 0.242 | – | –
Cc1cc(COc2ccc(S(=O)(=O)N[C@@H]3CCC[C@@H]3C(=O)NO)cc2)c2ccccc2n1 (relative stereo) | – | – | – | IC50 ([9]; read-out: pIC50 (converted)): 0.000631 µM; IC50 ([10]; read-out: IC50): 0.009 to 0.011 µM; IC50 ([10]; read-out: pIC50 (converted)): 0.01 µM
CC(=O)N1C[C@H](C(=O)NO)[C@H](NS(=O)(=O)c2ccc(OCc3cc(C)nc4ccccc34)cc2)C1 (relative stereo) | – | – | – | IC50 ([9]; read-out: IC50): 0.0006 µM; IC50 ([10]; read-out: IC50): 0.02 µM
Cc1cc(COc2ccc(S(=O)(=O)N(C)[C@@H]3[C@@H]4CC[C@@H](C4)[C@@H]3C(=O)NO)cc2)c2ccccc2n1 | – | – | – | IC50 ([9]; read-out: pIC50 (converted)): 0.001 µM; IC50 ([10]; read-out: IC50): 0.052 µM
Cc1cc(COc2ccc(S(=O)(=O)N3CCN(C(=O)C4CCC4)C(C(=O)NO)C3)cc2)c2c(n1)CCCC2 (centres undefined) | – | – | 0.019 | remaining at […], 1 µM [5]: 83%
Cc1cc(COc2ccc(S(=O)(=O)N[C@@H]3CN(C(=O)OC(C)(C)C)CC[C@H]3C(=O)NO)cc2)c2ccccc2n1 | – | – | – | IC50 ([9]; read-out: IC50): 0.0007 µM; IC50 ([10]; read-out: IC50): 0.058 µM
Cc1cc(COc2ccc(S(=O)(=O)N3CCC(C)(C(=O)NO)C3)cc2)c2ccccc2n1 (centres undefined) | – | – | 0.035 | solubility [8]: 41 µM (≈ 18.7 µg/mL); IC50 [7]: > 10 µM
Cc1cc(COc2ccc(S(=O)(=O)N3CCN(S(C)(=O)=O)C(C(=O)NO)C3)cc2)c2c(n1)CCCC2 (centres undefined) | – | – | 0.029 | remaining at […], 1 µM [5]: 88%
COC(=O)N1CCN(S(=O)(=O)c2ccc(OCc3cc(C)nc4c3CCCC4)cc2)CC1C(=O)NO (centres undefined) | – | – | 0.04 | remaining at […], 1 µM [5]: 100%
C[C@H](C(=O)NO)N1CCNc2cc(Oc3ccc(C(F)(F)F)cc3)ccc2S1 | 0.84 | 0.758 | – | –
Cc1cc(COc2ccc(S(=O)(=O)N[C@@H]3CCN(C=O)C[C@]3(O)C(=O)NO)cc2)c2ccccc2n1 | – | – | – | IC50 ([9]; read-out: pIC50 (converted)): 0.00126 µM; IC50 ([10]; read-out: IC50): 0.16 µM
COc1cc(COc2ccc3c(c2)NCCN([C@H](C)C(=O)NO)S3)cc(OC)c1 | 0.77 | 0.027 | – | –
CC(C)C[C@H](C(=O)NO)N1CCNc2cc(O)ccc2S1 | 9.5 | 0.089 | – | –
Cc1cc(COc2ccc(S(=O)(=O)N3CCCC(C(=O)NO)C3)cc2)c2ccccc2n1 (centres undefined) | – | – | 0.06 | solubility [8]: < 1 µM; IC50 [7]: > 10 µM
Cc1cc(COc2ccc(S(=O)(=O)N3CCN(C4CCC4)C(C(=O)NO)C3)cc2)c2c(n1)CCCC2 (centres undefined) | – | – | 0.15 | remaining at […], 1 µM [5]: 54%; IC50 [7]: > 10 µM
Cc1cc(COc2ccc(S(=O)(=O)NC[C@@H](C(=O)NO)N3CCCCC3)cc2)c2c(n1)CCCC2 | – | – | 0.006 | IC50 [7]: 0.06 µM
CC[C@]1(C(=O)NO)CCC[C@H]1NS(=O)(=O)c1ccc(OCc2cc(C)nc3ccccc23)cc1 | – | – | – | IC50 ([9]; read-out: pIC50 (converted)): 0.00251 µM; IC50 ([10]; read-out: IC50): 1 µM
CC(=O)N1CCN(S(=O)(=O)c2ccc(OCc3cc(C)nc4c3CCCC4)cc2)CC1C(=O)NO (centres undefined) | – | – | 0.014 | remaining at […], 1 µM [5]: 92%; solubility [8]: 61 µM (≈ 30.7 µg/mL); IC50 [7]: 9.1 µM
CCOc1cc(COc2ccc3c(c2)NCCN([C@H](CCCC(=O)OC)C(=O)NO)S3)cc(OCC)c1 | 1.1 | 0.013 | – | –
CNC(=O)[C@@H]1Cc2ccc(cc2)OCCCC[C@H](C(=O)NO)[C@@H](CCCc2ccc(Cl)cc2)C(=O)N1 | – | – | – | IC50 ([1]; read-out: pIC50 (converted)): 0.398 µM; IC50 [2]: 0.00316 µM
CC(=O)N1CCC(C(=O)NO)C(NS(=O)(=O)c2ccc(OCc3cc(C)nc4ccccc34)cc2)C1 (centres undefined) | – | – | – | IC50 ([9]; read-out: pIC50 (converted)): 0.00126 µM; IC50 ([10]; read-out: IC50): 0.202 µM
Cc1cc(COc2ccc(S(=O)(=O)N(C)C3C(C(=O)NO)[C@@H]4CC[C@H]3O4)cc2)c2ccccc2n1 (relative stereo; form 2) | – | – | – | IC50 ([9]; read-out: IC50): 0.002 µM; IC50 ([10]; read-out: IC50): 0.018 µM
